This is an account of results in US12583911B2, “Human immunodeficiency virus GP120 binding proteins” (ViiV Healthcare UK (No.5) Limited, priority 2022, dated 2026).

A value given as a limit tells only on which side of the number the result lay.

The nature of data set [1]: Melting temperature (Tm) of soluble CD4 domains, Prometheus System. In kind it is physicochemical. The conditions noted are these: soluble CD4 domain with C-terminal 6xHis tag. The procedure:
The best performing variants (SEQ ID NOs: 5-21) were fused with 6×His tag at their C-termini, expressed and purified from mammalian cells using methods as described in Example 1, except that purification was via a Ni-NTA resin (Cytiva, Marlborough MA) instead of Mabselect SuRe column, with standard protocol from the vendor.
These purified CD4 D1 variants (with C-terminal 6xHis tag) were then evaluated to determine their melting temperature (Tm, using Prometheus System, NanoTemper, München Germany), which indicates thermal stability, as well as their anti-viral activity against HIV-1 pseudotyped virus (see Example 2 above for methods using ACTOne cells).

In data set [2] the test system is panel of HIV-1 envelopes (pseudotyped HIV-1 virus). Nature of the data set: PSV assay (ACTOne cells), HIV-1 envelopes. The data set is classed as cell-based. The procedure:
(§1) The anti-viral activity of the antigen binding proteins was measured in a pseudotyped virus (PSV) assay.
(§2) PSV was produced in HEK-293T cells (ATCC, Manassas VA) by co-transfecting expression plasmids encoding the HIV-1 gp160 envelope gene and an HIV-1 backbone plasmid using TRANSIT-2020 transfection reagent (Mirus Bio, Madison WI). A panel of HIV-1 PSVs expressing different gp160 envelope trimers was generated to evaluate the effectiveness of the antigen binding proteins of the invention against a wide spectrum of HIV-1 strains.
(§3) The genome of PSV used in this assay contains a luciferase gene that is expressed once the virus enters cells. Accordingly, the luminescence signal (after adding a substrate of luciferase) can be used to determine the level of viral infection.
(§4) The 50% tissue culture infectious dose (TCID) of a single thawed aliquot of each batch of PSV was determined in ACTOne cells. The ACTOne cell-line used in this assay was derived in-house from a genetically engineered 293T cell clone that expresses CD4, CXCR4, and CCR5. Cells were maintained in growth medium composed of Dulbecco's modified Eagle's medium (DMEM, Life Technologies) at 37° C. in a humidified 5% CO2-95% air environment. Cell monolayers were split by treatment with Trypsin-EDTA (0.05%).
(§5) To run the anti-viral assay, ACTOne cells were detached by treating the cell culture flask with trypsin (trypsinization) and resuspended in growth medium containing 2% of DMSO to a density of 2.5×10^5 cells/ml. One hundred μl of such cells was added to 10 μl of antigen binding protein pre-loaded in a 96-well plate. Ninety μl of PSV was then added to each well. The assay plates were incubated at 37° C. in a humidified incubator at 5% CO2 level. Plates were developed after 72 hours of incubation by adding 50 μl of BRIGHTGLO luciferase reagent (Promega, Madison WI) to each well, and transferring the plates to an ENVISION multilabel plate reader (PerkinElmer, Waltham MA) to measure the luminescence and determine the level of virus that had infected the cells. The higher the luminescence signal, the higher the level of infection.

For data set [3], the system named is HIV-2 Env-pseudotypes (HIV-2-AID, HIV-2-ATM88, HIV-2-HCC-01). Nature of the data set: PSV assay (ACTOne cells), HIV-2 envelopes. In kind it is cell-based. The procedure:
as §1, §2, §3, §4, §5
HIV-2 differs from HIV-1 in that it originates from the transmission of simian immunodeficiency virus (SIV) from sooty mangabeys (SIVsmm) to human (Gao et al, J Virol. 1994; 68 (11): 7433-7447) whilst HIV-1 stems from the transmission from chimpanzees and western gorillas (HIV-1 group M and O, respectively). HIV-2 can also cause AIDS but is far less pathogenic and wide-spread than HIV-1 (de Silva et al, Trends Microbiol. 2008; 16 (12): 588-595; Da Silva et al, AIDS. 2008; 22 (10): 1195-1202). Though also using CD4 for infection (Sattentau et al, AIDS. 1988; 2 (2): 101-105), HIV-2 shares only 40% identity in the gp160 amino acid sequence with HIV-1, and is therefore less sensitive or insensitive to HIV-1 envelope-directed bnAbs (Kong et al, JVI 2012; 86 (2): 947-960).

Setting [4] is: envelope CAP45.2.00.G3, PSV assay.

With “D1m-E13C-I70C: soluble CD4 D1 variant of mD1.22 with E13C and I70C, SEQ ID NO:13, 6xHis tagged”, the “Tm (° C.)” value in data set [1] amounted to 78.8 °C.

For the substance “D1m-E87G: soluble CD4 D1 variant of mD1.22 with E87G, SEQ ID NO:8, 6xHis tagged [Molecule D1m-E87G]”, in data set [1], the “Tm (° C.)” value was determined as 71.9 °C.

Consider “D1m-E91H: soluble CD4 D1 variant of mD1.22 with E91H, SEQ ID NO:7, 6xHis tagged [Molecule D1m-E91H]”, for which the “Tm (° C.)” value in data set [1] was determined as 72.6 °C.

For “D1m-E91Q: soluble CD4 D1 variant of mD1.22 with E91Q, SEQ ID NO:6, 6xHis tagged [Molecule D1m-E91Q]”, the “Tm (° C.)” value in data set [1] was determined as 72.4 °C.

As to “D1m-H27C-G38C: soluble CD4 D1 variant of mD1.22 with H27C and G38C, SEQ ID NO:14, 6xHis tagged”, in data set [1], the “Tm (° C.)” value worked out at 90.1 °C.

“D1m-K8C-G99C: soluble CD4 D1 variant of mD1.22 with K8C and G99C, SEQ ID NO:11, 6xHis tagged [Molecule D1m-K8C-G99C]”: the “Tm (° C.)” value in data set [1] was 88.8 °C.

“D1m-K8C-G99C_Fc: CD4 D1m-K8C-G99C domain fused to human Fc, SEQ ID NO:158; CD4 control”: the IC50 is 143 nM in data set [2] (envelope 93UG065, PSV assay); 4.28 nM in data set [2] (envelope 246F3, PSV assay); 119 nM in data set [2] (envelope 0260.v5.c36, PSV assay); 90.5 nM in data set [2] (envelope 398F1, PSV assay); 0.77 nM in data set [2] (envelope 928_28, PSV assay); above 500 nM in data set [2] (envelope 3326_V4_C3). In addition, the IC50 is above 500 nM in data set [2] (envelope 3326_V4_C3, PSV assay); 64.2 nM in data set [2] (envelope 3468_V1_C12); 64.2 nM in data set [2] (envelope 3468_V1_C12, PSV assay); above 500 nM in data set [2] (envelope 3637_V5_C3); above 500 nM in data set [2] (envelope 3637_V5_C3, PSV assay); 5.07 nM in data set [2] (envelope 6471_V1_C16, PSV assay). In addition, the IC50 in data set [2] (envelope 25710, PSV assay) is 1.32 nM; in data set [2] (envelope 42368), 1.58 nM; in data set [2] (envelope 42368, PSV assay), 1.58 nM; in data set [2] (envelope 620345_C1, PSV assay), 99.3 nM; in data set [2] (envelope BJOX2000, PSV assay) it was 2.34 nM; in data set [2] (envelope CAP45.2.00.G3) it was 20.5 nM. Besides, the IC50 in data set [2] (setting [4]) was 20.5 nM; in data set [2] (envelope CC1/85), 1.98 nM; in data set [2] (envelope CC1/85, PSV assay), 1.98 nM; in data set [2] (envelope CE0217, PSV assay), 2.53 nM; in data set [2] (envelope CE1176, PSV assay), 4.22 nM; in data set [2] (envelope CH119, PSV assay), 3.25 nM. Besides, the IC50 in data set [2] (envelope CNE8, PSV assay) stood at 347 nM; in data set [2] (envelope CNE55, PSV assay) it was 41.8 nM; in data set [2] (envelope JR-CSF, PSV assay), 5.47 nM; in data set [2] (envelope JRFL, PSV assay), 1.12 nM; in data set [2] (envelope Q461_E2), 11.8 nM; in data set [2] (envelope Q461_E2, PSV assay) it was 11.8 nM. Besides, the IC50 in data set [2] (envelope T278.50) amounted to 1.43 nM; in data set [2] (envelope T278.50, PSV assay), 1.43 nM; in data set [2] (envelope TH976_17, PSV assay) it was 39 nM; in data set [2] (envelope TRO11, PSV assay), 147 nM; in data set [2] (envelope X1632, PSV assay), 1.82 nM; in data set [2] (envelope X2088.C9), 9.2 nM. In addition, the IC50 in data set [2] (envelope X2088.C9, PSV assay) is 9.2 nM; in data set [2] (envelope X2278, PSV assay), 44.6 nM; in data set [2] (envelope YU-2, PSV assay), 0.2 nM; in data set [2] (envelope ZM106.9), 15.1 nM; in data set [2] (envelope ZM106.9, PSV assay) it was 15.1 nM; in data set [3] (envelope HIV-2-AID, PSV assay, ACTOne cells), 24.4 nM. Moreover, the IC50 in data set [3] (envelope HIV-2-ATM88, PSV assay) was 2.72 nM; in data set [3] (envelope HIV-2-HCC-01, ACTOne cells), above 300 nM; in data set [3] (envelope HIV-2-HCC-01, PSV assay), above 300 nM.

For the substance “D1m-K8I: soluble CD4 D1 variant of mD1.22 with K8I, SEQ ID NO:10, 6xHis tagged [Molecule D1m-K8I]”, the “Tm (° C.)” value in data set [1] was 75.9 °C.

As to “D1m-K8V: soluble CD4 D1 variant of mD1.22 with K8V, SEQ ID NO:5, 6xHis tagged [Molecule D1m-K8V]”, the “Tm (° C.)” value in data set [1] stood at 77.1 °C.

With “D1m-K21C-G65C: soluble CD4 D1 variant of mD1.22 with K21C and G65C, SEQ ID NO:15, 6xHis tagged”, the “Tm (° C.)” value in data set [1] is 80.1 °C.

For the substance “D1m-N52W: soluble CD4 D1 variant of mD1.22 with N52W, SEQ ID NO:9, 6xHis tagged [Molecule D1m-N52W]”, the “Tm (° C.)” value in data set [1] came to 72 °C.

For “D1m-T11C-K72C: soluble CD4 D1 variant of mD1.22 with T11C and K72C, SEQ ID NO:12, 6xHis tagged”, the “Tm (° C.)” value in data set [1] worked out at 79.9 °C.

Regarding “D1mD2_His: soluble CD4 D1D2 variant mD1.22-D2 (SEQ ID NO:2) plus C-terminal 6xHis tag [Molecule D1mD2_His, reference compound]”, the IC50 in data set [2] (envelope 42368, PSV assay) was 7.29 nM; in data set [2] (envelope BJOX2000, PSV assay), 33.4 nM; in data set [2] (setting [4]), above 500 nM; in data set [2] (envelope CH119, PSV assay), 120 nM; in data set [2] (envelope HXB2, PSV assay), 0.07 nM; in data set [2] (envelope LAI, PSV assay) it was 5.41 nM. The IC50 in data set [2] (envelope NL4-3, PSV assay) worked out at 0.74 nM; in data set [2] (envelope T278.50, PSV assay) it was 16 nM; in data set [2] (envelope TRO11, PSV assay) it was 17.3 nM; in data set [2] (envelope X1632_S2_B10, PSV assay) it was 14.9 nM.
